Test results published in US9321757B2, “Heterocyclic compound” (Takeda Pharmaceutical Company Limited, priority 2013, dated 2016).

Legend:
[1] = system: NC1-induced nephritis; format: in vivo, rat
Description: 8-Week-old female WKY rats (Japan Charles River Laboratories) were used as 7 rats/group. Bovine NC1 (The non-collagenous domain of α3 chain of type IV collagen, Chondrex, inc) was dissolved in phosphate buffer to adjust the concentration to 0.3 mg/mL. The equal amount of complete Freund's adjuvant (H37 Ra, Diffco) was added thereto to give an emulsion. The emulsion (0.2 mL) was inoculated intracutaneously into the rat tail head (the 0 day). The compound was orally administered for 5 weeks (the 0 to 35th day, twice a day). 0.5% Methyl cellulose (5 mL/kg) was orally administered as a control. The urine was collected for 4 hr on the −1st day (Pre value) and the 35th day. The collected urine was centrifuged at 400 G, for 5 min at 4° C., the supernatant was kept at −80° C., and the amounts of creatinine and protein were measured. The body weight was measured on the 0th day and the 35th day. A comparison between the groups was analyzed by Dunnett test, and p≦0.05 was evaluated as a significance level.

[2] = system: tumor necrosis factor (TNFα) production in the serum; experiment: R848 Tolerance Test in Rat; format: in vivo; conditions: Lewis rat serum 1 hr after R848 i.p., mean ± S.E.
Description: 6-Week-old male LEW/CrlCrlj (Lewis) rats (Japane Charles River Laboratories) were used as 8 rats/group. R848 (Enzo Life Sciences) was dissolved in dimethyl sulfoxide (500 mM), and the concentration of solution was adjusted to 300 μM with saline, and 1.0 mL thereof was intraperitoneally administered in the rat. The compound was orally administered 1 hr before R848 administration. 0.5% Methyl cellulose (5 mL/kg) was orally administered as a control. The blood was collected from the abdominal aorta 1 hr after R848 administration. The blood was left overnight at 4° C., and the serum was collected by centrifugation. The amount of the tumor necrosis factor (TNFα) production in the serum was measured by […] TNF-alpha Quantikine ELISA Kit (R&D Systems). Shirley-Williams test was used for a dose-dependent manner, and p≦0.05 was evaluated as a significance level.

[3] = biological target: T1, IRAK-4 (Homo sapiens, UniProt Q9NWZ3); experiment: IRAK-4 Enzyme Inhibition Test (LANCE method); format: biochemical; conditions: compound concentration 1 μM; well without enzyme = 100% inhibition; read-out: IRAK4 enzyme inhibitory rate (%) at 1 μM
T1 construct: purchased Carna Biosciences, Inc
T1 sequence (Q9NWZ3 1-460): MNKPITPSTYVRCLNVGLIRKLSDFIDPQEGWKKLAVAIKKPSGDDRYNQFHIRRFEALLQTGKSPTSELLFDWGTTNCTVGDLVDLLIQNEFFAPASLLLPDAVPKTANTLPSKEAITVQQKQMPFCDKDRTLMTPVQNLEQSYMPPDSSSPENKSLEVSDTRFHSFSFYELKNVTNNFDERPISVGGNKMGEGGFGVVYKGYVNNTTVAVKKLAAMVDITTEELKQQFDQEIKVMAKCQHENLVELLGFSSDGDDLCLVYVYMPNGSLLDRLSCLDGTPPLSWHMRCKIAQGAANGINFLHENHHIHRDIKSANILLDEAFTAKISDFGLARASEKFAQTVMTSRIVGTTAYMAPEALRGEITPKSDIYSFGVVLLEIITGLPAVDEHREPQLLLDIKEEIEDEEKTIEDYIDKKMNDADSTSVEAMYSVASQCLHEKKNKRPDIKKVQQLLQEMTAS
Description: IRAK-4 enzyme inhibitory activities of test compounds were measured by LANCE method (PerkinElmer). First, a test compound diluted with assay buffer (50 mM HEPES (pH7.5), 10 mM MgCl2, 1 mM EGTA, 2 mM DTT, 0.01% Tween 20, 0.01% BSA) was added to 384-well plate at 2 μL each. Then, IRAK-4 (Carna Biosciences, Inc.) and a fluorescence-labeled peptide substrate (ULight-ACC peptide, PerkinElmer) solution diluted with assay buffer at 240 ng/mL and 37.5 nM, respectively were added at 2 μL each. Then, enzyme reaction was started by adding 2 μL each of ATP solution prepared with assay buffer at 1.5 mM. After the reaction at room temperature for 1 hr, Detection Buffer (PerkinElmer) prepared to be 20 mM EDTA, 1 nM europium-labeled anti-phospho ACC antibody (PerkinElmer) was added at 6 μL each. After standing at room temperature for 1 hr, fluorescence intensity (excitation wavelength 340 nm, fluorescence wavelength 665 nm, delay time 100 microseconds) was measured by a plate reader, Envision (PerkinElmer). The inhibitory activity of each compound was calculated as relative value where fluorescence intensity of a well without enzyme is considered as 100% inhibition.

Row | inhibition at 1 µM [3] [%] | SMILES | Proteinuria (mg/mg Cre 4 hr), Pre (−1st day) ([1]; WKY rat, 3 mg/kg group, Pre value (−1st day, before immunisation and dosing), mean ± S.E.) [mg/mg Cre 4 hr] | Proteinuria (mg/mg Cre 4 hr), 35th day ([1]; WKY rat, 3 mg/kg orally twice a day, 0 to 35th day, mean ± S.E., p ≦ 0.05 vs. Control 31.7 ± 4.26) [mg/mg Cre 4 hr] | Body weight difference from the 0th day on the 35th day (g) ([1]; rat, in vivo, po, 3 mg/kg) | TNFα production amount ([2]; 0.3 mg/kg orally 1 hr before R848, Control 1090 ± 137) [pg/mL] | TNFα production amount ([2]; 1 mg/kg orally 1 hr before R848, Control 1090 ± 137) [pg/mL] | TNFα production amount ([2]; 3 mg/kg orally 1 hr before R848, p ≦ 0.05 vs. Control 1090 ± 137) [pg/mL] | TNFα production amount ([2]; 10 mg/kg orally 1 hr before R848, p ≦ 0.05 vs. Control 1090 ± 137) [pg/mL] | TNFα production amount ([2]; 0.27 mg/kg orally 1 hr before R848, Control 945 ± 106) [pg/mL] | TNFα production amount ([2]; 0.91 mg/kg orally 1 hr before R848, Control 945 ± 106) [pg/mL] | TNFα production amount ([2]; 2.73 mg/kg orally 1 hr before R848, Control 945 ± 106) [pg/mL] | TNFα production amount ([2]; 9.09 mg/kg orally 1 hr before R848, p ≦ 0.05 vs. Control 945 ± 106) [pg/mL]
1 | 100 | Cn1cc(NC(=O)c2coc(-c3ccnc(NCC(F)(F)F)c3)n2)c(N2CCN(CCO)C2=O)n1 [Example 57, N-(3-(3-(2-hydroxyethyl)-2-oxoimidazolidin-1-yl)-1-methyl-1H-pyrazol-4-yl)-2-(2-((2,2,2-trifluoroethyl)amino)pyridin-4-yl)-1,3-oxazole-4-carboxamide] | 0.32 ± 0.05 | 18.1 ± 2.43 | +63.7 ± 2.8 g | 1349 ± 181 | 736 ± 76.2 | 306 ± 45.9 | 236 ± 26.8 |  |  |  | 
2 | 99 | Cn1cc(NC(=O)c2coc(-c3ccnc(NCC(F)(F)F)c3)n2)c(N2CCNC2=O)n1 [Example 58, N-(1-methyl-3-(2-oxoimidazolidin-1-yl)-1H-pyrazol-4-yl)-2-(2-((2,2,2-trifluoroethyl)amino)pyridin-4-yl)-1,3-oxazole-4-carboxamide] |  |  |  |  |  |  |  | 1070 ± 160 | 804 ± 116 | 628 ± 31.1 | 326 ± 41.1
